According to BindingDB's records for doi:10.1021/jm00114a027 (Research Biochemicals, 1991):

Test: Compound was tested for binding affinity to dopamine reuptake sites in the tissue homogenates prepared from […] striatum using [3H]CFT as radioligand

Compound: COC(=O)[C@@H]1C2CC[C@H](C[C@@H]1c1ccc(I)cc1)N2C
- IC50: 1.6 nM

Compound: COC(=O)C1C(c2ccc(I)cc2)CC2CCC1N2C [(3S,5R)-methyl 3-(4-iodophenyl)-8-methyl-8-aza-bicyclo[3.2.1]octane-2-carboxylate]
- IC50: 88 nM
